According to patent US20020022647A1, “2-(4-bromo or 4-iodo phenylamino) benzoic acid derivatives” (priority 1997, published 2002):

Target: GST-MEK (p45MEK) and GST-MAPK (p44MAP kinase) (Homo sapiens, UniProt Q02750)
Assay: Cascade assay for inhibitors of the MAP kinase pathway (In Vitro)
Type: biochemical
Details: incorporation of 32P into myelin basic protein
Experimental: Cascade Assay for Inhibitors of the MAP Kinase Pathway
Incorporation of ^32P into myelin basic protein (MBP) was assayed in the presence of a glutathione S-transferase fusion protein containing p44MAP kinase (GST-MAPK) and a glutathione S-transferase fusion protein containing p45MEK (GST-MEK). The assay solution contained 20 mM HEPES, pH 7.4, 10 mM MgCl2, 1 mM MnCl2, 1 mM EGTA, 50 μM [γ-^32P]ATP, 10 μg GST-MEK0.5 μg GST-MAPK and 40 μg MBP in a final volume of 100 μL. Reactions were stopped after 20 minutes by addition of trichloroacetic acid and filtered through a GF/C filter mat. ^32P retained on the filter mat was determined using a 1205 Betaplate. Compounds were assessed at 10 μM for ability to inhibit incorporation of ^32P.
To ascertain whether compounds were inhibiting GST-MEK or GST MAPK, two additional protocols were employed. In the first protocol, compounds were added to tubes containing GST-MEK, followed by addition of GST-MAPK, MBP and [γ-^32P]ATP. In the second protocol, compounds were added to tubes containing both GST-MEK and GST-MAPK, followed by MBP and [γ-^32P]ATP.

Sequence of GST-MEK (p45MEK) and GST-MAPK (p44MAP kinase) (Q02750 whole entry): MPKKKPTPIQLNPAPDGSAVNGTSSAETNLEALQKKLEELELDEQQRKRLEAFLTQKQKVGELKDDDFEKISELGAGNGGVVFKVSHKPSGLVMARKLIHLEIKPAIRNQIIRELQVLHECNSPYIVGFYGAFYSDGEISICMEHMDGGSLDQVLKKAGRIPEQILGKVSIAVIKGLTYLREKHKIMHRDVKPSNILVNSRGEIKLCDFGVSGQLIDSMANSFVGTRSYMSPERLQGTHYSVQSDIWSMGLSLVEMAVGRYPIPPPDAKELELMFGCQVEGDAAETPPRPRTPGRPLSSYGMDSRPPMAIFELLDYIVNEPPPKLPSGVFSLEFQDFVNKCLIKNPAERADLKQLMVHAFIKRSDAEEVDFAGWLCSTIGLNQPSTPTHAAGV

| SMILES | IC50 [nM] |
| --- | --- |
| Cc1cc(I)ccc1Nc1cc(F)ccc1C(=O)O [Example 1, 4-Fluoro-2-(4-iodo-2-methylphenylamino)benzoic acid] | 19 |
| Cc1cc(I)ccc1Nc1c(C(=O)O)cc(F)c(F)c1F [Example 2, 3,4,5-Trifluoro-2-(4-iodo-2-methyl-phenylamino)-benzoic acid] | 14 |
| Cc1cc(I)ccc1Nc1c(C(=O)O)ccc(F)c1F [Example 3, 3,4-Difluoro-2-(4-iodo-2-methyl-phenylamino)-benzoic acid] | 11.1 |
| Cc1cc(I)ccc1Nc1c(C(=O)O)cc(Br)c(F)c1F [Example 4, 5-Bromo-3,4-difluoro-2-(4-iodo-2-methyl-phenylamino)-benzoic acid] | 5 |
| O=C(O)c1cc(Cl)ccc1Nc1ccc(I)cc1Cl [Example 5, 5-Chloro-2-(2-chloro-4-iodo-phenylamino)--benzoic acid] | 66 |
| Cc1cc(I)ccc1Nc1ccc(Cl)cc1C(=O)O [Example 6, 5-Chloro-2-(4-iodo-2-methyl-phenylamino)-benzoic acid] | 71 |
| Cc1cc(I)ccc1Nc1ccc(Cl)cc1C(=O)[O-].[Na+] [Example 7, Sodium 5-Chloro-2-(4-iodo-2-methyl-phenylamino)-benzoate] | 72 |
| Cc1cc(I)ccc1Nc1ccc(Br)cc1C(=O)O [Example 8, 5-Bromo-2-(4-iodo-2-methyl-phenylamino)-benzoic acid] | 86 |
| O=C(O)c1cc([N+](=O)[O-])ccc1Nc1ccc(I)cc1Cl [Example 9, 2-(2-Chloro-4-iodo-phenylamino)-5-nitro-benzoic acid] | 97 |
| Cc1c(Nc2cc(F)ccc2C(=O)O)ccc(I)c1F [Example 10, 4-Fluoro-2-(3-fluoro-4-iodo-2-methyl-phenylamino)-benzoic acid] | 101 |
| Cc1cc(I)ccc1Nc1ccc([N+](=O)[O-])cc1C(=O)O [Example 11, 2-(4-Iodo-2-methyl-phenylamino)-5-nitro-benzoic acid] | 128 |
| O=C(O)c1cc([N+](=O)[O-])ccc1Nc1ccc(I)cc1F [Example 12, 2-(2-Fluoro-4-iodo-phenylamino)-5-nitro-benzoic acid] | 135 |
| Cc1cc(Br)ccc1Nc1cc(F)ccc1C(=O)O [Example 13, 2-(4-Bromo-2-methyl-phenylamino)-4-fluoro-benzoic acid] | 178 |
| O=C(O)c1cc([N+](=O)[O-])ccc1Nc1ccc(I)cc1Br [Example 14, 2-(2-Bromo-4-iodo-phenylamino)-5-nitro-benzoic acid] | 179 |
| Cc1cc(Br)ccc1Nc1c(C(=O)O)ccc(F)c1F [Example 15, 2-(4-Bromo-2-methyl-phenylamino)-3,4-difluoro-benzoic acid] | 194 |
| Cc1cc(I)ccc1Nc1c(F)cccc1C(=O)O [Example 16, 3-Fluoro-2-(4-iodo-2-methyl-phenylamino)-benzoic acid] | 323 |
| COc1cc(I)ccc1Nc1c(C(=O)O)ccc(F)c1F [Example 17, 3,4-Difluoro-2-(4-iodo-2-methoxy-phenylamino)-benzoic acid] | 434 |

| SMILES | IC50 [nM] |
| --- | --- |
| Cc1cc(I)ccc1Nc1cc(Cl)ccc1C(=O)O [Example 18, 4-Chloro-2-(4-iodo-2-methyl-phenylamino)-benzoic acid] | 446 |
| Cc1cc(I)ccc1Nc1ccccc1C(=O)O [Example 19, 2-(4-Iodo-2-methyl-phenylamino)-benzoic acid] | 524 |
| Cc1cc(I)ccc1Nc1ccc(F)cc1C(=O)O [Example 20, 5-Fluoro-2-(4-iodo-2-methyl-phenylamino)-benzoic acid] | 557 |
| Cc1cc(I)ccc1Nc1ccc(I)cc1C(=O)O [Example 21, 5-Iodo-2-(4-iodo-2-methyl-phenylamino)-benzoic acid] | 569 |
| Cc1cc(I)ccc1Nc1c(F)cc(C(=O)O)c(F)c1F [Example 22, 2,3,5-Trifluoro-4-(4-iodo-2-methyl-phenylamino)-benzoic acid] | 1581 |
| Cc1c(Nc2cc(F)ccc2C(=O)O)ccc(I)c1Cl [Example 23, 4-Fluoro-2-(3-chloro-4-iodo-2-methyl-phenylamino) benzoic acid] | 1588 |
| COc1ccc(Nc2ccc(I)cc2)c(C(=O)O)c1 [Example 24, 2-(4-Iodo-phenylamino)-5-methoxy-benzoic acid] | 1944 |
| O=C(O)c1cccc(Cl)c1Nc1ccc(I)cc1Cl [Example 25, 3-Chloro-2-(2-chloro-4-iodo-phenylamino)-benzoic acid] | 2363 |
| Cc1cc(I)ccc1Nc1cccc(F)c1C(=O)O [Example 26, 2-Fluoro-6-(4-iodo-2-methyl-phenylamino)-benzoic acid] | 2609 |
| Cc1ccc(Nc2ccc(I)cc2C)c(C(=O)O)c1 [Example 28, 5-Methyl-2-(4-iodo-2-methyl-phenylamino)-benzoic acid] | 3670 |
| Cc1cc(I)ccc1Nc1cccc(Cl)c1C(=O)O [Example 29, 2-Chloro-6-(4-iodo-2-methyl-phenylamino)-benzoic acid] | 5331 |
| COc1ccc(NC(=O)c2ccc(OC)c([N+](=O)[O-])c2)cc1 [Example 32, 4-Methoxy-N-(4-methoxy-phenyl)-3-nitro-benzamide] | 28 |
| Cc1cc(I)ccc1Nc1cc(F)ccc1C(N)=O [Example 33, 4-Fluoro-2-(4-iodo-2-methyl-phenylamino)-benzaniide] | 52 |
| CNC(=O)c1ccc(F)cc1Nc1ccc(I)cc1C [Example 34] | 98 |
| CCNC(=O)c1ccc(F)cc1Nc1ccc(I)cc1C [Example 35, N-Ethyl-4-fluoro-2-(4-iodo-2-methyl-phenylamino)-benzamide] | 121 |
| Cc1cc(I)ccc1Nc1cc(F)ccc1C(=O)N(C)C [Example 36, 4-Fluoro-2-(4-iodo-2-methyl-phenylamino)-N,N-dimethyl-benzamide] | 129 |
| Cc1cc(I)ccc1Nc1cc(F)ccc1C(=O)Nc1nnn[nH]1 [Example 37, 4-Fluoro-2-(4-iodo-2-methyl-phenylamino)-N-(1H-tetrazol-5-yl)-benzamide] | 237 |

Now from value to compound:

| IC50 [nM] | SMILES |
| --- | --- |
| 412 | Cc1cc(I)ccc1Nc1ccc(Br)cc1C(N)=O [Example 38, 5-Bromo-2-(4-iodo-2-methyl-phenylamino)-benzamide] |
| 497 | Cc1cc(I)ccc1Nc1ccc(Cl)cc1C(=O)N(C)C [Example 39, 5-Chloro-2-(4-iodo-2-methyl-phenylamino)-N,N-dimethyl-benzamide] |
| 872 | CCCNC(=O)c1ccc(F)cc1Nc1ccc(I)cc1C [Example 41, 4-Fluoro-2-(4-iodo-2-methyl-phenylamino)-N-propyl-benzamide] |
| 920 | Cc1cc(I)ccc1Nc1ccc(Br)cc1C(=O)NCCO [Example 42, 5-Bromo-N-(2-hydroxy-ethyl)-2-(4-iodo-2-methyl-phenylamino)-benzamide] |
| 1481 | Cc1cc(I)ccc1Nc1cc(F)ccc1C(=O)NCCCN1CCN(CCO)CC1 [Example 44, 4-Fluoro-N-{3-[4-(2-hydroxy-ethyl)-piperazin-1-yl]-propyl}-2-(4-iodo-2-methyl-phenylamino)-benzamide] |
| 1755 | CCN(CC)C(=O)c1cc([N+](=O)[O-])ccc1Nc1ccc(I)cc1C [Example 45, N,N-Diethyl-2-(4-iodo-2-methyl-phenylamino)-5-nitro-benzamide] |
| 1814 | CCCCNC(=O)c1ccc(F)cc1Nc1ccc(I)cc1C [Example 46, N-Butyl-4-fluoro-2-(4-iodo-2-methyl-phenylamino)-benzamide] |
| 1911 | CCN(CC)C(=O)c1cc(Cl)ccc1Nc1ccc(I)cc1C [Example 47, 5-Chloro-N,N-diethyl-2-(4-iodo-2-methyl-phenylamino)-benzamide] |
| 1945 | Cc1cc(I)ccc1Nc1ccc(Br)cc1C(=O)N(C)C [Example 48] |
| 887 | Cc1cc(I)ccc1Nc1ccc([N+](=O)[O-])cc1CO [Example 51, [2-(4-Iodo-2-methyl-phenylamino)-5-nitro-phenyl]-methanol] |
| 2346 | Cc1cc(I)ccc1Nc1ccc(Br)cc1CO [Example 52, [5-Bromo-2-(4-iodo-2-methyl-phenylamino)-phenyl]-methanol] |
| 158 | Cc1cc(I)ccc1Nc1c(C(=O)NCC(O)CO)ccc(F)c1F (stereo not shown) [Example 54, N-(2,3-Dihydroxy-propyl)-3,4-difluoro-2-(4-iodo-2-methyl-phenylamino)-benzamide] |
| 114 | Cc1cc(I)ccc1Nc1c(C(=O)NCCN2CCCCC2)cc(Br)c(F)c1F [Example 55, 5-Bromo-3,4-difluoro-2-(4-iodo-2-methyl-phenylamino)-N-(2-piperidin-1-yl-ethyl)-benzamide] |
| 399 | Cc1cc(I)ccc1Nc1cc(F)ccc1C(=O)NCC(O)CO (stereo not shown) [Example 57, N-(2,3-Dihydroxy-propyl)-4-fluoro-2-(4-iodo-2-methyl-phenylamino)-benzamide] |
| 604 | Cc1cc(I)ccc1Nc1ccc(F)cc1C(=O)NCCCN1CCN(CCO)CC1 [Example 90, 5-Fluoro-N-{3-[4-(2-hydroxy-ethyl)-piperazin-1-yl]-propyl}-2-(4-iodo-2-methyl-phenylamino)-benzamide] |
